{"source": "patent US20230104936A1", "about": "“TRPML MODULATORS” (Casma Therapeutics, Inc., priority 2019, published 2023)", "system": "TFEB", "test": "TFEB nuclear translocation assay, HeLa wt cells", "assay_type": "cell-based", "conditions": "2 hrs compound treatment, Table 1 does not say HeLa wt or TRPML1 KO", "method_in_brief": "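TFEB translocation into the nucleus of HeLa wt cells is scored by high-content immunofluorescence after 2 hrs of compound treatment at 37° C, reported as AC50.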", "data": [{"molecule": "CN(C)S(=O)(=O)c1ccc(S(=O)(=O)N2C(=O)N(C3CCN(c4ccc(Cl)cc4F)CC3)C(=O)C2(C)C)cc1", "note": "[Compound A-294, 4-({3-[1-(4-chloro-2-fluorophenyl)piperidin-4-yl]-5,5-dimethyl-2,4-dioxoimidazolidin-1-yl}sulfonyl)-N,N-dimethylbenzene-1-sulfonamide]", "values": [{"measurement": "AC50", "setting": "Homo sapiens, HeLa, 2 h", "value": "≥ 10", "unit": "µM"}]}, {"molecule": "CS(=O)(=O)c1ccc(S(=O)(=O)Nc2cc(Cl)ccc2N2CCOCC2)cc1", "note": "[Compound A-299, N-[5-chloro-2-(morpholin-4-yl)phenyl]-4-methanesulfonylbenzene-1-sulfonamide]", "values": [{"measurement": "AC50", "setting": "Homo sapiens, HeLa, 2 h", "value": "≥ 10", "unit": "µM"}]}, {"molecule": "COCC1(C)CCN(c2ccccc2NS(=O)(=O)c2ccc(C(F)F)cc2)CC1", "note": "[Compound A-620, 4-(difluoromethyl)-N-{2-[4-(methoxymethyl)-4-methylpiperidin-1-yl]phenyl}benzene-1-sulfonamide]", "values": [{"measurement": "AC50", "setting": "Homo sapiens, HeLa, 2 h", "value": "≤ 2", "unit": "µM"}]}, {"molecule": "COCC1(C)CCN(c2ccccc2NS(=O)(=O)c2ccc3c(c2)OC2(CCC2)O3)CC1", "note": "[Compound A-685, N-{2-[4-(methoxymethyl)-4-methylpiperidin-1-yl]phenyl}spiro[1,3-benzodioxole-2,1′-cyclobutane]-6-sulfonamide]", "values": [{"measurement": "AC50", "setting": "Homo sapiens, HeLa, 2 h", "value": "≤ 2", "unit": "µM"}]}, {"molecule": "CN(C)S(=O)(=O)c1ccc(S(=O)(=O)Nc2ccccc2N2CCC(C)(C(C)(C)O)CC2)cc1", "note": "[Compound A-522, N1-(2-(4-(2-hydroxypropan-2-yl)-4-methylpiperidin-1-yl)phenyl)-N4,N4-dimethylbenzene-1,4-disulfonamide]", "values": [{"measurement": "AC50", "setting": "Homo sapiens, HeLa, 2 h", "value": "2.01 to 8", "unit": "µM"}]}, {"molecule": "CN(C)S(=O)(=O)c1ccc(C(=O)Nc2ccccc2N2CCN(c3ccc(Cl)cc3F)CC2)cc1", "note": "[Compound A-11, N-{2-[4-(4-chloro-2-fluorophenyl)piperazin-1-yl]phenyl}-4-(dimethylsulfamoyl)benzamide]", "values": [{"measurement": "AC50", "setting": "Homo sapiens, HeLa, 2 h", "value": "≤ 2", "unit": "µM"}]}, {"molecule": "CC1(C)CC2(CCN(c3ccccc3NS(=O)(=O)c3ccc4c(c3)OC(C)(C)O4)CC2)CO1", "note": "[Compound A-704, N-(2-{3,3-dimethyl-2-oxa-8-azaspiro[4.5]decan-8-yl}phenyl)-2,2-dimethyl-2H-1,3-benzodioxole-5-sulfonamide]", "values": [{"measurement": "AC50", "setting": "Homo sapiens, HeLa, 2 h", "value": "≤ 2", "unit": "µM"}]}, {"molecule": "CN1CC2(CCN(c3c(F)cccc3NS(=O)(=O)c3ccc(S(=O)(=O)N(C)C)cc3)CC2)OC1=O", "note": "[Compound A-764, N4-(3-fluoro-2-{3-methyl-2-oxo-1-oxa-3,8-diazaspiro[4.5]decan-8-yl}phenyl)-N1,N1-dimethylbenzene-1,4-disulfonamide]", "values": [{"measurement": "AC50", "setting": "Homo sapiens, HeLa, 2 h", "value": "2.01 to 8", "unit": "µM"}]}, {"molecule": "CN1CC2(CCN(c3ccccc3NS(=O)(=O)c3ccc(S(=O)(=O)N(C)C)cc3)CC2)c2ncccc21", "note": "[Compound A-271, N1,N1-dimethyl-N4-(2-{1′-methyl-1′,2′-dihydrospiro[piperidine-4,3′-pyrrolo(3,2-b]pyridin]-1-yl}phenyl)benzene-1,4-disulfonamide]", "values": [{"measurement": "AC50", "setting": "Homo sapiens, HeLa, 2 h", "value": "≤ 2", "unit": "µM"}]}, {"molecule": "C[C@@H](c1cccc(F)c1N1CCC(C(F)(F)F)CC1)S(=O)(=O)c1ccc(S(=N)(=O)N(C)C)cc1", "note": "(single isomer, unassigned) [Compound A-932]", "values": [{"measurement": "AC50", "setting": "Homo sapiens, HeLa, 2 h", "value": "≤ 2", "unit": "µM"}]}, {"molecule": "O=C(Nc1cccc(Cl)c1N1CCOCC1)c1ccc2c(c1)CCC2", "note": "[Compound A-366, N-[3-chloro-2-(morpholin-4-yl)phenyl]-2,3-dihydro-1H-indene-5-carboxamide]", "values": [{"measurement": "AC50", "setting": "Homo sapiens, HeLa, 2 h", "value": "≥ 10", "unit": "µM"}]}, {"molecule": "CC1(C)CC2(CCN(c3ccccc3NS(=O)(=O)c3ccc(OC(F)(F)F)cc3)CC2)CO1", "note": "[Compound A-673, N-(2-{3,3-dimethyl-2-oxa-8-azaspiro[4.5]decan-8-yl}phenyl)-4-(trifluoromethoxy)benzene-1-sulfonamide]", "values": [{"measurement": "AC50", "setting": "Homo sapiens, HeLa, 2 h", "value": "2.01 to 8", "unit": "µM"}]}, {"molecule": "COc1ccc(S(=O)(=O)Nc2ccccc2N2CCC(O)(c3ccc(F)cn3)CC2)cc1", "note": "[Compound A-409, N-{2-[4-(5-fluoropyridin-2-yl)-4-hydroxypiperidin-1-yl]phenyl}-4-methoxybenzene-1-sulfonamide]", "values": [{"measurement": "AC50", "setting": "Homo sapiens, HeLa, 2 h", "value": "≥ 10", "unit": "µM"}]}, {"molecule": "Cc1ccc(S(=O)(=O)C(C)c2cccc(F)c2N2CCC(CN3C4CCC3COC4)CC2)cc1", "note": "(stereo not shown) [Compound A-905, 8-[(1-{2-fluoro-6-[1-(4-methylbenzenesulfonyl)ethyl]phenyl}piperidin-4-yl)methyl]-3-oxa-8-azabicyclo[3.2.1]octane]", "values": [{"measurement": "AC50", "setting": "Homo sapiens, HeLa, 2 h", "value": "≤ 2", "unit": "µM"}]}, {"molecule": "CCOCCC1CCN(c2ccccc2NS(=O)(=O)c2ccc3c(c2)CC(C)(C)O3)CC1", "note": "[Compound A-631, N-{2-[4-(2-ethoxyethyl)piperidin-1-yl]phenyl}-2,2-dimethyl-2,3-dihydro-1-benzofuran-5-sulfonamide]", "values": [{"measurement": "AC50", "setting": "Homo sapiens, HeLa, 2 h", "value": "≤ 2", "unit": "µM"}]}, {"molecule": "CC(C)(C)S(=O)(=O)c1ccc(S(=O)(=O)Nc2cccc(Cl)c2N2CCOCC2)cc1", "note": "[Compound A-278, N-[3-chloro-2-(morpholin-4-yl)phenyl]-4-(2-methylpropane-2-sulfonyl)benzene-1-sulfonamide]", "values": [{"measurement": "AC50", "setting": "Homo sapiens, HeLa, 2 h", "value": "≥ 10", "unit": "µM"}]}, {"molecule": "O=S(=O)(CC1CCC2(CCCC2)O1)Nc1cccc(Cl)c1N1CCOCC1", "note": "(stereo not shown) [Compound A-393, N-[3-chloro-2-(morpholin-4-yl)phenyl]-1-{1-oxaspiro[4.4]nonan-2-yl}methanesulfonamide]", "values": [{"measurement": "AC50", "setting": "Homo sapiens, HeLa, 2 h", "value": "8.01 to 9.99", "unit": "µM"}]}, {"molecule": "CN(C)S(=O)(=O)c1ccc(S(=O)(=O)Nc2ccccc2N2CCN(C(=O)C(C)(C)F)CC2)cc1", "note": "[Compound A-432, N4-{2-[4-(2-fluoro-2-methylpropanoyl)piperazin-1-yl]phenyl}-N1,N1-dimethylbenzene-1,4-disulfonamide]", "values": [{"measurement": "AC50", "setting": "Homo sapiens, HeLa, 2 h", "value": "2.01 to 8", "unit": "µM"}]}, {"molecule": "CN(C)S(=O)(=O)c1ccc(S(=O)(=O)n2ccc(C3CCN(c4ncc(Cl)cc4F)CC3)n2)cc1", "note": "[Compound A-96, 4-((3-(1-(5-chloro-3-fluoropyridin-2-yl)piperidin-4-yl)-1H-pyrazol-1-yl)sulfonyl)-N,N-dimethylbenzenesulfonamide]", "values": [{"measurement": "AC50", "setting": "Homo sapiens, HeLa, 2 h", "value": "≥ 10", "unit": "µM"}]}, {"molecule": "CN(C)S(=O)(=O)c1ccc(S(=O)(=O)Nc2ccccc2N2CCN(C(c3ccccc3)C(F)(F)F)CC2)cc1", "note": "(stereo not shown) [Compound A-545, N1,N1-dimethyl-N4-{2-[4-(2,2,2-trifluoro-1-phenylethyl)piperazin-1-yl]phenyl}benzene-1,4-disulfonamide]", "values": [{"measurement": "AC50", "setting": "Homo sapiens, HeLa, 2 h", "value": "≤ 2", "unit": "µM"}]}, {"molecule": "CN(C)S(=O)(=O)c1ccc(S(=O)(=O)Nc2cccc(F)c2N2CCC(CN3C4COCC3C4)CC2)cc1", "note": "[Compound A-778, N4-3-fluoro-2-[4-(3-oxa-6-azabicyclo[3.1.1]heptan-6-ylmethyl)piperidin-1-yl]phenyl-N1,N1-dimethylbenzene-1,4-disulfonamide]", "values": [{"measurement": "AC50", "setting": "Homo sapiens, HeLa, 2 h", "value": "≤ 2", "unit": "µM"}]}, {"molecule": "O=S(=O)(Nc1cc(Cl)ccc1N1CCCC2(CCCO2)C1)c1ccc2c(c1)CCC2", "note": "(stereo not shown) [Compound A-362, N-(5-chloro-2-{1-oxa-7-azaspiro[4.5]decan-7-yl}phenyl)-2,3-dihydro-1H-indene-5-sulfonamide]", "values": [{"measurement": "AC50", "setting": "Homo sapiens, HeLa, 2 h", "value": "≤ 2", "unit": "µM"}]}, {"molecule": "C[C@@H]1CN(CC2CCN(c3c(F)cccc3NS(=O)(=O)c3ccc(C(F)F)cc3)CC2)C[C@H](C)O1", "note": "[Compound A-766, 4-(difluoromethyl)-N-[2-(4-{[(2R,6S)-2,6-dimethylmorpholin-4-yl]methyl}piperidin-1-yl)-3-fluorophenyl]benzene-1-sulfonamide]", "values": [{"measurement": "AC50", "setting": "Homo sapiens, HeLa, 2 h", "value": "≤ 2", "unit": "µM"}]}, {"molecule": "Cc1nn(C)c(N2CCN(c3ccc(Cl)cc3F)CC2)c1NS(=O)(=O)c1ccc(S(=O)(=O)N(C)C)cc1", "note": "[Compound A-18, N1-(5-(4-(4-chloro-2-fluorophenyl)piperazin-1-yl)-1,3-dimethyl-1H-pyrazol-4-yl)-N4,N4-dimethylbenzene-1,4-disulfonamide]", "values": [{"measurement": "AC50", "setting": "Homo sapiens, HeLa, 2 h", "value": "≤ 2", "unit": "µM"}]}, {"molecule": "O=S(=O)(Nc1cccc(Cl)c1N1CCOCC1)c1cnn2c1CCCC2", "note": "[Compound A-369, N-[3-chloro-2-(morpholin-4-yl)phenyl]-4H,5H,6H,7H-pyrazolo[1,5-a]pyridine-3-sulfonamide]", "values": [{"measurement": "AC50", "setting": "Homo sapiens, HeLa, 2 h", "value": "≥ 10", "unit": "µM"}]}, {"molecule": "CC(C)(C)S(=O)(=O)c1ccc(S(=O)(=O)Nc2ccccc2N2CCC(c3c(F)cccc3F)CC2)cc1", "note": "[Compound A-213, N-{2-[4-(2,6-difluorophenyl)piperidin-1-yl]phenyl}-4-(2-methylpropane-2-sulfonyl)benzene-1-sulfonamide]", "values": [{"measurement": "AC50", "setting": "Homo sapiens, HeLa, 2 h", "value": "≤ 2", "unit": "µM"}]}, {"molecule": "CC1(C)Cc2cc(S(=O)(=O)Nc3ccccc3N3CCCC34CCCOC4)ccc2O1", "note": "(stereo not shown) [Compound A-640, 2,2-dimethyl-N-(2-{7-oxa-1-azaspiro[4.5]decan-1-yl}phenyl)-2,3-dihydro-1-benzofuran-5-sulfonamide]", "values": [{"measurement": "AC50", "setting": "Homo sapiens, HeLa, 2 h", "value": "2.01 to 8", "unit": "µM"}]}, {"molecule": "COCCOCCOCCN(C)S(=O)(=O)c1ccc(S(=O)(=O)Nc2ccccc2N2CCC(c3ccc(Cl)cc3F)CC2)cc1", "note": "[Compound A-587, N4-{2-[4-(4-chloro-2-fluorophenyl)piperidin-1-yl]phenyl}-N1-{2-[2-(2-methoxyethoxy)ethoxy]ethyl}-N1-methylbenzene-1,4-disulfonamide]", "values": [{"measurement": "AC50", "setting": "Homo sapiens, HeLa, 2 h", "value": "2.01 to 8", "unit": "µM"}]}, {"molecule": "CC(C)c1ccc(S(=O)(=O)Nc2ccccc2N2CCN(C(=O)C(C)(C)C)CC2)cc1", "note": "[Compound A-512, N-{2-[4-(2,2-dimethylpropanoyl)piperazin-1-yl]phenyl}-4-(propan-2-yl)benzene-1-sulfonamide]", "values": [{"measurement": "AC50", "setting": "Homo sapiens, HeLa, 2 h", "value": "2.01 to 8", "unit": "µM"}]}, {"molecule": "COCC1(C)CCN(c2c(NS(=O)(=O)c3ccc(S(=O)(=O)N(C)C)cc3)ccc3c2cnn3C)CC1", "note": "[Compound A-746, N4-{4-[4-(methoxymethyl)-4-methylpiperidin-1-yl]-1-methyl-1H-indazol-5-yl}-N1,N1-dimethylbenzene-1,4-disulfonamide]", "values": [{"measurement": "AC50", "setting": "Homo sapiens, HeLa, 2 h", "value": "≤ 2", "unit": "µM"}]}, {"molecule": "CN(C)S(=O)(=O)c1ccc(S(=O)(=O)Nc2ccccc2N2CCC(O)(c3ccc(Cl)cc3F)CC2)cc1", "note": "[Compound A-115, N4-{2-[4-(4-chloro-2-fluorophenyl)-4-hydroxypiperidin-1-yl]phenyl}-N1,N1-dimethylbenzene-1,4-disulfonamide]", "values": [{"measurement": "AC50", "setting": "Homo sapiens, HeLa, 2 h", "value": "≤ 2", "unit": "µM"}]}, {"molecule": "Cc1ccc(S(=O)(=O)Nc2ccccc2N2CCC(c3ccccn3)CC2)cc1", "note": "[Compound A-92, 4-methyl-N-{2-[4-(pyridin-2-yl)piperidin-1-yl]phenyl}benzene-1-sulfonamide]", "values": [{"measurement": "AC50", "setting": "Homo sapiens, HeLa, 2 h", "value": "≤ 2", "unit": "µM"}]}, {"molecule": "C#Cc1cccc(NS(=O)(=O)c2ccc(S(=O)(=O)N(C)C)cc2)c1N1CCCCC1", "note": "[Compound A-901, N4-[3-ethynyl-2-(piperidin-1-yl)phenyl]-N1,N1-dimethylbenzene-1,4-disulfonamide]", "values": [{"measurement": "AC50", "setting": "Homo sapiens, HeLa, 2 h", "value": "≤ 2", "unit": "µM"}]}, {"molecule": "C[C@@H]1CN(CC2CCN(c3c(F)cccc3NS(=O)(=O)c3ccc(S(C)(=N)=O)cc3)CC2)C[C@H](C)O1", "note": "(single isomer, unassigned) [Compound A-846]", "values": [{"measurement": "AC50", "value": "2.01 to 8", "unit": "µM"}]}]}
